Consider one molecule from US10315990B2, “Isothiocyanate compounds and isothiocyanate XPO1 protein inhibitor drugs thereof” (DRIVINGFORCE THERAPEUTICS Co., Ltd., priority 2015, dated 2019).

In assay [1] the test system is SK-OV3 (high metastasis type ovarian cancer cell line). Description: Ovarian cancer intraperitoneal metastasis animal model. The format is in vivo, nudemice (BALB/c-nu/nu). The following applies: Mus musculus, SK-OV-3, ip.
The test system of assay [2] is Saos-2. The experiment in a line: Inhibitory activity for other high metastasis type cancer cell line (MTT or CCK-8). It is filed as cell-based. The following applies: Homo sapiens; Saos-2, 72 hours; read-out: IC50.
In assay [3] the test system is TNF-α. The experiment in a line: Serum TNF-α level of IBD animal model (ELISA). The format is in vivo, SD rats. Particulars: 80 mg/kg, three days after making the TNBS model. The text has this:
(§1) Inflammatory bowel disease is an autoimmune disease. […] The therapeutic effect of the representative compound for the immune system disease or inflammation can be assessed by detecting change in levels of some important cytokines such as TNF-α and IL-6 at downstream of the signal path.
(In general: In an ELISA, binding on a coated surface is turned into a signal by an enzyme label.)

Assay [4] deals with A2780. Description: Inhibitory activity for high metastasis type ovarian cancer cell line (MTT or CCK-8). It is filed as cell-based. Particulars: Homo sapiens; A2780, 72 hours; read-out: IC50. How it is done:
(§2) The two cell lines were inoculated on 96-well cell culture plate in an amount of 6000 cells per well and cultured at 37° C. for 24 hours, and then treated solely with the representative compound added therein and cultured. Seventy-two hours later, MTT or CCK-8 method was used to detect the inhibitory activity of the representative compound for the high metastasis type ovarian cancer cell lines.

The subject of assay [5] is HO-8910. The description is as above. The format is cell-based. The following applies: HO-8910, 72 hours; read-out: IC50. As for the experimental part: as §2
Assay [6] addresses T1, XPO1 protein (Homo sapiens, UniProt O14980).
T1 construct: Sixteen hours later, NES-GFP plasmid was transfected with liposome; endogenous in cells
The experiment in a line: Inhibitory activity for XPO1 protein (NES-GFP nuclear export, laser confocal microscope). The format is cell-based. The following applies: NES-GFP nuclear export, cells treated for 2 hours.

The test system of assay [7] is IL-6. Description: Serum IL-6 level of IBD animal model (ELISA). It is filed as in vivo, SD rats. Particulars: 80 mg/kg, three days after making the TNBS model.
Source text: as §1

Assay [8] concerns 786-O. Description: Inhibitory activity for other high metastasis type cancer cell line (MTT or CCK-8). The format is cell-based. The following applies: Homo sapiens, 786-0; 786-O, 72 hours; read-out: IC50.
Assay [9] concerns Panc-1. The assay is described as above. It is filed as cell-based. Particulars: Homo sapiens; Panc-1, 72 hours; read-out: IC50.
Assay [10] relates to NCI-H1975. The experiment in a line: cells. The format is cell-based. Particulars: Homo sapiens; NCI-H1975, 72 hours; read-out: IC50.
Assay [11] relates to NCI-H1650. Description: cells. The following applies: Homo sapiens; NCI-H1650, 72 hours; read-out: IC50. It is filed as cell-based.
Assay [12] has as its system CaSki. The experiment in a line: Inhibitory activity for other high metastasis type cancer cell line (MTT or CCK-8). It is filed as cell-based. Particulars: Homo sapiens, Ca-Ski; CaSki, 72 hours; read-out: IC50.
In assay [13] the test system is Jeko-1. Description: Inhibitory activity for high metastasis type lymphoma cell line (MTT or CCK-8). The format is cell-based. The following applies: Homo sapiens; Jeko-1, 72 hours; read-out: IC50. As for the experimental part:
(§3) Jeko-1, Raji and U2932 are three typical high metastasis type lymphoma cell lines. The lymphoma cell line was inoculated on 96-well cell culture plate in an amount of 6000 cells per well and cultured at 37° C. for 24 hours, and then treated solely with the compound added therein and cultured. Seventy-two hours later, MTT or CCK-8 method was used to detect the inhibitory activity of the compound for the two high metastasis type lymphoma cell lines.

Assay [14] concerns U2932. The description is as above. It is filed as cell-based. Particulars: Homo sapiens; U2932, 72 hours; read-out: IC50. How it is done: as §3
The test system of assay [15] is Raji. Described as above. The following applies: Homo sapiens, 72 hours, read-out: IC50. It is filed as cell-based. As for the experimental part: as §3
For assay [16], the system named is IBD animal model. Description: Macroscopic pathological changes of IBD animal model (enteroclysis with TNBS). It is filed as in vivo, SD rats. Particulars: TNBS rats. Summed up: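 Male SD rats, eight weeks old (10 per group), given rectal TNBS in 50% ethanol at 100 mg/kg 5 cm from anus; controls received saline. Drug treatment for two weeks, then rectum photographed, weighed and scored macroscopically for ulceration and bleeding.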

T1 sequence (O14980 whole entry, species assumed): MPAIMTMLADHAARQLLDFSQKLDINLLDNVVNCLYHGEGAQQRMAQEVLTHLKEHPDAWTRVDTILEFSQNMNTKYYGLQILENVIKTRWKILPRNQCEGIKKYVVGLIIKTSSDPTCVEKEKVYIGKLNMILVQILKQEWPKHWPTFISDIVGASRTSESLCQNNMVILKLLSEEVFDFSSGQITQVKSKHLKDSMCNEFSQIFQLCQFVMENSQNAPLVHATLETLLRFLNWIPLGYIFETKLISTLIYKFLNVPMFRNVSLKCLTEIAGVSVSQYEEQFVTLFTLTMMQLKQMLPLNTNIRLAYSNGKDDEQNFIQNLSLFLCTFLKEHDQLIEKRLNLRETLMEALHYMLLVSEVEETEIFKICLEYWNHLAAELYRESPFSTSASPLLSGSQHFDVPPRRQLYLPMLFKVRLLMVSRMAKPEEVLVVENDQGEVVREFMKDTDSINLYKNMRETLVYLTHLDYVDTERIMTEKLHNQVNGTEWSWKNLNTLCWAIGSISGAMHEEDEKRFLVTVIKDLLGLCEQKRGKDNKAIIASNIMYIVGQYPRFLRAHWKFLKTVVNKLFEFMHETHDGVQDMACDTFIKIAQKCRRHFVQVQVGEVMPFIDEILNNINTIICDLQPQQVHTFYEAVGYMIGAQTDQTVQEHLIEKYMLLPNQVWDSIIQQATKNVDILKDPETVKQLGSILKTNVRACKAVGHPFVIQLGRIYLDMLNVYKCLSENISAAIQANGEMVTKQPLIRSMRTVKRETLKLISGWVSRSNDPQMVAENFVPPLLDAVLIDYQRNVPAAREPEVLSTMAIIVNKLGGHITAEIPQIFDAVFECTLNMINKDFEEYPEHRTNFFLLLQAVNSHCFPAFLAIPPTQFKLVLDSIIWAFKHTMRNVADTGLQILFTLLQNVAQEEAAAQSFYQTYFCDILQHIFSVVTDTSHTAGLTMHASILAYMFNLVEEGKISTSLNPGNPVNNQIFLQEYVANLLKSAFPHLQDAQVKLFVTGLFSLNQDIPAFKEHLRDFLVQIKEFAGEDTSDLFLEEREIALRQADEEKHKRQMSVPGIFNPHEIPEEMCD

In the case of `C[S+]([O-])CCCCN=C=S` (stereo not shown) [SFN, sulforaphane, reference compound], the response vs control in vivo at 80 mg/kg in assay [1] (504 h, 80 mg/kg intraperitoneal injection once a day for 3 weeks, read-out: T/C (%)) stood at 95%. In addition, the mortality – broadly, the percentage killed – at 80 mg/kg in assay [1] (720 h, read-out: Mortality (within 30 days)) was 16.7%. Further, the IC50 (as a rule, the concentration that inhibits the measured activity by half) is 14.5 µM in assay [2]; 23.2 µM in assay [4]; 21.3 µM in assay [5]; 10.2 µM in assay [8]; 12.1 µM in [9]; 20.3 µM in [10]. For the same molecule, the IC50 in [11] came to 18.1 µM; in assay [12], 11 µM; in assay [13] it was 10.1 µM; in [14], 13.4 µM; in assay [15], 11 µM. Moreover, the “Serum TNF-α level, Animal-1” value in assay [3] (Animal-1) amounted to 2.1 ng/mL. Besides, in assay [3] (Animal-2), the “Serum TNF-α level, Animal-2” value is 1.8 ng/mL. The “Serum TNF-α level, Animal-3” value in assay [3] (Animal-3) came to 2.1 ng/mL. In assay [6], the “Activity (μM): inhibitory activity for XPO1 protein (full inhibitory concentration)” value was determined as 35 µM. The “Serum IL-6 level, Animal-1” value in assay [7] (Animal-1) worked out at 2.5 ng/mL. Further, in [7] (Animal-2), the “Serum IL-6 level, Animal-2” value was 2.4 ng/mL. Moreover, the “Serum IL-6 level, Animal-3” value in assay [7] (Animal-3) came to 2.3 ng/mL. In addition, the Macroscopic pathological score in assay [16] (80 mg/kg intragastrically daily, score 0-5, 10 animals) is 4.0 ± 0.5. In addition, the “colon tissue bleeding and ulceration phenomena (in words)” value in assay [16] (80 mg/kg) was “small relief extent”.
